Results: ChEMBL document CHEMBL5375962 (J Med Chem, 2023)
≈ marks a conversion by molar mass, not a printed value.

Experiments:
[1] = Unbound fraction in dog plasma at 1 uM; type: ADME, cell-free, Canis lupus familiaris
[2] = Drug distribution in mouse kidney at 30 mg/kg, po measured at 180 mins; type: ADME, organism-based; settings: in vivo, 3 h
[3] = AUC in dog at 2 mg/kg, po; type: ADME, organism-based, Canis lupus familiaris; parameters: dose 2 mg/kg, route po; settings: in vivo
[4] = Half life in dog at 2 mg/kg, po; type: ADME, organism-based, Canis lupus familiaris; settings: in vivo
[5] = Volume of distribution in rat at 1 mg/kg, iv measured after 12 hrs; type: ADME, organism-based; settings: in vivo
[6] = Cmax in dog at 1 mg/kg, iv; type: ADME, organism-based, Canis lupus familiaris; parameters: dose 1 mg/kg, route iv; settings: in vivo
[7] = Metabolic stability in rat liver microsomes assessed as compound degradation measured after 30 mins; type: ADME, Microsome; settings: read-out: Drug degradation
Hepatocyte = experiment: Cytotoxicity against rat Primary hepatocyte; type: toxicity, cell-based; settings: hepatocytes
[8] = Permeability in MDCK cells assessed as drug transport measured over 1 hr in presence of P-gp; type: ADME, cell-based, Canis lupus familiaris; settings: dog
[9] = Unbound fraction in rat plasma at 1 uM; type: ADME, cell-free
[10] = Cmax in dog at 2 mg/kg, po; type: ADME, organism-based, Canis lupus familiaris; parameters: dose 2 mg/kg, route po; settings: in vivo
Ketohexokinase [11] = molecular target: T1, Ketohexokinase (Homo sapiens, UniProt P50053); experiment: Inhibition of human KHK-C preincubated for 15 mins followed by substrate addition and measured after 20 mins in presence of ATP by Rapidfire MS analysis
T1 sequence (P50053 whole entry): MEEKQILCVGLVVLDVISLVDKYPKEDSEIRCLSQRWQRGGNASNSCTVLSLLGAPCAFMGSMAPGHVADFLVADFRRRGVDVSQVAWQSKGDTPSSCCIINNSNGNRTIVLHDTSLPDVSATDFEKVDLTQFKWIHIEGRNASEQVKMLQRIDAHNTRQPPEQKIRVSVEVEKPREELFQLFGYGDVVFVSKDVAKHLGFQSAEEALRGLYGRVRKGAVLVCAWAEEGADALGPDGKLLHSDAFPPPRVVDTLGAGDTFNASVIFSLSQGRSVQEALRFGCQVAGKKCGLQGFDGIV

[12] = AUC in dog at 1 mg/kg, iv; type: ADME, organism-based, Canis lupus familiaris; parameters: dose 1 mg/kg, route iv; settings: in vivo
[13] = Clearance in dog at 1 mg/kg, iv; type: ADME, organism-based, Canis lupus familiaris; settings: in vivo
[14] = Drug distribution in mouse liver at 30 mg/kg, po measured at 180 mins; type: ADME, organism-based; settings: in vivo, 3 h
[15] = Oral bioavailability in rat at 2 mg/kg measured after 12 hrs; type: ADME, organism-based; settings: in vivo
[16] = Metabolic stability in mouse liver microsomes assessed as compound degradation measured after 30 mins; type: ADME, Microsome; settings: read-out: Drug degradation
[17] = Inhibition of mouse KHK-A
[18] = Clearance in human hepatocytes measured per 10^6 cells; type: ADME, cell-based, Hepatocyte; settings: read-out: CLH
[19] = Clearance in rat at 1 mg/kg, iv measured after 12 hrs; type: ADME, organism-based; settings: in vivo
[20] = AUC in rat at 2 mg/kg, po measured after 12 hrs; type: ADME, organism-based; parameters: time 12 hrs, dose 2 mg/kg, route po; settings: in vivo
[21] = Metabolic stability in human liver microsomes assessed as compound degradation measured after 30 mins; type: ADME, Microsome; settings: read-out: Drug degradation
Ketohexokinase [22] = molecular target: T1, Ketohexokinase; experiment: Inhibition of KHK in human HepG2 cells incubated for 3 hrs by Rapidfire MS analysis; type: cell-based
[23] = Unbound fraction in human plasma at 1 uM; type: ADME, cell-free
Mus musculus = experiment: Reduction in fructose level in 5 hrs fasted C57B6 mouse by measuring pharmacodynamic response administered via oral gavage for 30 mins followed by oral fructose challenge and measured upto 180 mins by oral fructose tolerance test; type: functional; settings: dose 30-100 mg/kg, time […]
[24] = Volume of distribution in dog at 1 mg/kg, iv; type: ADME, organism-based, Canis lupus familiaris; settings: in vivo
[25] = Cmax in rat at 2 mg/kg, po measured after 12 hrs; type: ADME, organism-based; parameters: time 12 hrs, dose 2 mg/kg, route po; settings: in vivo
[26] = Unbound fraction in mouse plasma at 1 uM; type: ADME, cell-free
[27] = Half life in rat at 2 mg/kg, po measured after 12 hrs; type: ADME, organism-based; settings: in vivo
[28] = Oral bioavailability in dog at 2 mg/kg; type: ADME, organism-based, Canis lupus familiaris; settings: in vivo
[29] = AUC in rat at 1 mg/kg, iv measured after 12 hrs; type: ADME, organism-based; parameters: time 12 hrs, dose 1 mg/kg, route iv; settings: in vivo
[30] = Half life in dog at 1 mg/kg, iv; type: ADME, organism-based, Canis lupus familiaris; settings: in vivo
[31] = Cmax in rat at 1 mg/kg, iv measured after 12 hrs; type: ADME, organism-based; parameters: dose 1 mg/kg, time 12 hrs, route iv; settings: in vivo
[32] = Clearance in rat hepatocytes measured per 10^6 cells; type: ADME, cell-based, Hepatocyte; settings: read-out: CLH
[33] = Thermodynamic solubility of the compound […] at pH 7.4; type: physicochemical; settings: read-out: Therm_solubility
[34] = Metabolic stability in dog liver microsomes assessed as compound degradation measured after 30 mins; type: ADME, Canis lupus familiaris, Microsome; settings: read-out: Drug degradation
[35] = Drug distribution in mouse heart at 30 mg/kg, po measured at 180 mins; type: ADME, organism-based; settings: in vivo, 3 h
[36] = Tmax in dog at 2 mg/kg, po; type: ADME, organism-based, Canis lupus familiaris; settings: in vivo
[37] = Half life in rat at 1 mg/kg, iv measured after 12 hrs; type: ADME, organism-based; settings: in vivo
[38] = Tmax in rat at 2 mg/kg, po measured after 12 hrs; type: ADME, organism-based; settings: in vivo
[39] = Clearance in dog hepatocytes measured per 10^6 cells; type: ADME, cell-based, Canis lupus familiaris, Hepatocyte; settings: read-out: CLH

For `C[C@H]1CCN1c1nc(-c2cnn(CC(=O)N3CCNCC3)c2)cc(C(F)(F)F)n1` [LY-3522348], the fraction unbound at 1 µM [1] was 0.24, the Drug uptake [2] was “Active” and the AUC [3] was 23.2 µM·h. The half-life [4] was 37 h, the Vd [5] was 6.5 L/kg and the Cmax [6] was 3000 nM. The metabolised at 0.5 h [7] was 18%, the LC20 (Hepatocyte) was greater than 50000 nM and the Drug transport [8] was 4.4%. The fraction unbound at 1 µM [9] was 0.18, the Cmax [10] was 657 nM and the IC50 (Ketohexokinase [11]) was 20 nM. For the same compound, the AUC [12] was 12.9 µM·h, the clearance [13] was 3 mL/min/kg and the Drug uptake [14] was “Active”. The bioavailability [15] was 83%, the metabolised at 0.5 h [16] was 17% and the IC50 [17] was 14 nM. It also gave a hepatocyte CLint [18] of less than 1.8 µL/min/1e6 cells, a clearance [19] of 6 mL/min/kg and an AUC at 12 h [20] of 11.6 µM·h. It also gave a metabolised at 0.5 h [21] of 0%, an IC50 (Ketohexokinase [22]) of 41 nM and a fraction unbound at 1 µM [23] of 0.15. The Activity (Mus musculus) was “Dose-Dependent Effect”, the Vd [24] was 7.8 L/kg and the Cmax [25] was 717 nM. The fraction unbound at 1 µM [26] was 0.15, the half-life [27] was 13 h and the bioavailability [28] was 87%. For the same compound, the AUC at 12 h [29] was 7.06 µM·h, the half-life [30] was 28 h and the Cmax [31] was 942 nM. It also gave a hepatocyte CLint [32] of 2.2 µL/min/1e6 cells, a solubility thermodynamic [33] of 520 µg/mL (≈ 1270 µM) and a metabolised at 0.5 h [34] of 28%. The Drug uptake [35] was “Active”, the Tmax [36] was 1.7 h and the half-life [37] was 13 h. It also gave a Tmax [38] of 4.7 h and a hepatocyte CLint [39] of less than 1.8 µL/min/1e6 cells.
